Ki and IC50 data for 17 molecules are collected here from BindingDB's records for doi:10.1021/jm031121n (Novo Nordisk, 2004).

Structures are written as SMILES.

Target in one test: not listed separately
The experiment in a line: Inhibitory activity against rabbit muscle glycogen phosphorylase a in the absence of AMP.
Regarding `CCN1C(C)=C(C(=O)OC(C)C)[C@@H](c2ccccc2)C(C(=O)O)=C1C(=O)O` [(S)-1-Ethyl-6-methyl-4-phenyl-1,4-dihydro-pyridine-2,3,5-tricarboxylic acid 5-isopropyl ester], the Ki was found to be 11 nM.

The target of the next test is Glycogen phosphorylase, muscle form (Oryctolagus cuniculus) (UniProt P00489). The test is described as follows: Inhibitory activity against rabbit Muscle glycogen phosphorylase b.
Sequence of Glycogen phosphorylase, muscle form (Oryctolagus cuniculus) (P00489 whole entry, looked up): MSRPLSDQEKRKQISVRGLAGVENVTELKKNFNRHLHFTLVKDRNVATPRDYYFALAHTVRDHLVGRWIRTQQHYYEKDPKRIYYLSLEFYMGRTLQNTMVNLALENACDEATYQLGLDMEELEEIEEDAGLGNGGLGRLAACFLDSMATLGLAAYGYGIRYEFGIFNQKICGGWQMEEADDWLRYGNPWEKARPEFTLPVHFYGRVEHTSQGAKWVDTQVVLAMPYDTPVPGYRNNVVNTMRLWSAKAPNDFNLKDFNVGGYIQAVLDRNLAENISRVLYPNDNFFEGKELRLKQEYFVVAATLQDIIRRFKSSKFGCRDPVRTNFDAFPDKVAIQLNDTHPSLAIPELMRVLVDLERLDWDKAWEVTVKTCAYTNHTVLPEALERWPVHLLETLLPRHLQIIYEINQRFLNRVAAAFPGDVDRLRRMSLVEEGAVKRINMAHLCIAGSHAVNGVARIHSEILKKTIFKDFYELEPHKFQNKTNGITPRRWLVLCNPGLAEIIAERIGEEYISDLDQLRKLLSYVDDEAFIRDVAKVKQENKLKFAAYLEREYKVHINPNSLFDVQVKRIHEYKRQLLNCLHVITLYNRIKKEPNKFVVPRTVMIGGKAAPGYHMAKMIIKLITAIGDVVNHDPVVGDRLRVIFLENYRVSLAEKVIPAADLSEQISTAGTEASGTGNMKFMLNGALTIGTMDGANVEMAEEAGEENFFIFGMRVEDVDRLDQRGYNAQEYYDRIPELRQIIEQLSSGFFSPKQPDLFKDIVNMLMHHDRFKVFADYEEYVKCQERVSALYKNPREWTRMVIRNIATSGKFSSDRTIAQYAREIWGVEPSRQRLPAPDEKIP
Regarding `O=C1NC(=O)[C@]2(C[C@H](CO)[C@@H](O)[C@H](O)[C@H]2O)N1` [(6S,7S,8R,9R)-6,7,8-Trihydroxy-9-hydroxymethyl-1,3-diaza-spiro[4.5]decane-2,4-dione], the inhibitory constant (Ki) came out at 3000 nM. In other words, the single-digit micromolar range.

The next test has the same target. The experiment in a line: Inhibition of Rabbit muscle glycogen phosphorylase B.
For `COc1cccc(C(=O)Nc2ccccc2Oc2ccc(C(=O)O)c(C(=O)O)c2)c1` [4-[2-(3-Methoxy-benzoylamino)-phenoxy]-phthalic acid], the IC50 was 50000 nM. Consider `CC(=O)c1cccc(C(=O)Nc2ccccc2Oc2ccc(C(=O)O)c(C(=O)O)c2)c1` [4-[2-(3-Acetyl-benzoylamino)-phenoxy]-phthalic acid], for which the IC50 was 50000 nM. This lies in the double-digit micromolar range.

As to `O=C(O)c1cccc(C(=O)Nc2ccccc2Oc2ccc(C(=O)O)c(C(=O)O)c2)c1` [4-[2-(3-Carboxy-benzoylamino)-phenoxy]-phthalic acid], the half-maximal inhibitory concentration (IC50) is above 200000 nM.

The target in a further test is Glycogen phosphorylase, liver form (Sus scrofa). The test is described as follows: In vitro inhibition of pig liver Glycogen phosphorylase A.
Molecule `O=C(Nc1ccccc1Oc1ccc(C(=O)O)c(C(=O)O)c1)c1ccccc1` [4-(2-Benzoylamino-phenoxy)-phthalic acid] yielded a half-inhibitory concentration (IC50) above 200000 nM. Still for that read-out and setting: in the case of `Cc1ccc(C(=O)Nc2ccccc2Oc2ccc(C(=O)O)c(C(=O)O)c2)cc1` [4-[2-(4-Methyl-benzoylamino)-phenoxy]-phthalic acid] it was above 30000 nM; in that of `O=C(Nc1cc(F)ccc1Oc1ccc(C(=O)O)c(C(=O)O)c1)c1cccc([N+](=O)[O-])c1` [4-[4-Fluoro-2-(3-nitro-benzoylamino)-phenoxy]-phthalic acid], 2500 nM. `O=C(O)c1cccc(C(=O)Nc2ccccc2Oc2ccc(C(=O)O)c(C(=O)O)c2)c1` [4-[2-(3-Carboxy-benzoylamino)-phenoxy]-phthalic acid] displayed a concentration for half-maximal inhibition (IC50) above 100000 nM. With `Cc1cc(Oc2ccc(C(=O)O)c(C(=O)O)c2)c(NC(=O)c2cccc([N+](=O)[O-])c2)cc1NC(=O)c1cccc([N+](=O)[O-])c1` [4-[5-Methyl-2,4-bis-(3-nitro-benzoylamino)-phenoxy]-phthalic acid], inhibition was half-maximal at 700 nM (IC50). As to `O=C(Nc1ccccc1Oc1ccc(C(=O)O)c(C(=O)O)c1)c1ccc(Cl)c(Cl)c1` [4-[2-(3,4-Dichloro-benzoylamino)-phenoxy]-phthalic acid], the half-inhibitory concentration (IC50) was above 50000 nM.

Take `O=C(Nc1cc(Br)ccc1Oc1ccc(C(=O)O)c(C(=O)O)c1)c1cccc([N+](=O)[O-])c1` [4-[4-Bromo-2-(3-nitro-benzoylamino)-phenoxy]-phthalic acid]: the midpoint of inhibition, the IC50, lay at 250 nM. This counts as sub-micromolar.

For `Cc1ccc(Oc2ccc(C(=O)O)c(C(=O)O)c2)c(NC(=O)c2cccc([N+](=O)[O-])c2)c1` [4-[4-Methyl-2-(3-nitro-benzoylamino)-phenoxy]-phthalic acid], the IC50 stood at 450 nM. This IC50 lies about 1.8-fold higher than the previous one.

`N#Cc1ccc(Oc2ccc(C(=O)O)c(C(=O)O)c2)c(NC(=O)c2cccc([N+](=O)[O-])c2)c1` [4-[4-Cyano-2-(3-nitro-benzoylamino)-phenoxy]-phthalic acid] showed an IC50 of 2200 nM. The same measure, in the same setting: the value for `O=C(Nc1ccc(Oc2ccc(C(=O)O)c(C(=O)O)c2)c(NC(=O)c2cccc([N+](=O)[O-])c2)c1)c1ccccc1` [4-[4-Benzoylamino-2-(3-nitro-benzoylamino)-phenoxy]-phthalic acid] was 120 nM. On to `CC(=O)Nc1ccc(Oc2ccc(C(=O)O)c(C(=O)O)c2)c(NC(=O)c2cccc([N+](=O)[O-])c2)c1` [4-[4-Acetylamino-2-(3-nitro-benzoylamino)-phenoxy]-phthalic acid], for which half-maximal inhibition (IC50) was put at 140 nM. For the molecule `O=C(Nc1cc(C(F)(F)F)ccc1Oc1ccc(C(=O)O)c(C(=O)O)c1)c1cccc([N+](=O)[O-])c1` [4-[2-(3-Nitro-benzoylamino)-4-trifluoromethyl-phenoxy]-phthalic acid], the half-inhibitory concentration (IC50) stood at 1800 nM. Molecule `O=C(Nc1ccccc1Oc1ccc(C(=O)O)c(C(=O)O)c1)c1ccc(Cl)cc1` [4-[2-(4-Chloro-benzoylamino)-phenoxy]-phthalic acid] yielded an IC50 above 200000 nM.
